{"source": "patent US8143221B2", "about": "“Use of ADNF polypeptides for treating peripheral neurotoxicity” (Ramot at Tel-Aviv University, priority 2005, dated 2012)", "molecules": {"B1": {"name": "ADNP: full length ADNF III, activity-dependent neuroprotective protein (protein, UniProt Q9H2P0 1-1102, looked up)", "chain": "MFQLPVNNLGSLRKARKTVKKILSDIGLEYCKEHIEDFKQFEPNDFYLKNTTWEDVGLWDPSLTKNQDYRTKPFCCSACPFSSKFFSAYKSHFRNVHSEDFENRILLNCPYCTFNADKKTLETHIKIFHAPNASAPSSSLSTFKDKNKNDGLKPKQADSVEQAVYYCKKCTYRDPLYEIVRKHIYREHFQHVAAPYIAKAGEKSLNGAVPLGSNAREESSIHCKRCLFMPKSYEALVQHVIEDHERIGYQVTAMIGHTNVVVPRSKPLMLIAPKPQDKKSMGLPPRIGSLASGNVRSLPSQQMVNRLSIPKPNLNSTGVNMMSSVHLQQNNYGVKSVGQGYSVGQSMRLGLGGNAPVSIPQQSQSVKQLLPSGNGRSYGLGSEQRSQAPARYSLQSANASSLSSGQLKSPSLSQSQASRVLGQSSSKPAAAATGPPPGNTSSTQKWKICTICNELFPENVYSVHFEKEHKAEKVPAVANYIMKIHNFTSKCLYCNRYLPTDTLLNHMLIHGLSCPYCRSTFNDVEKMAAHMRMVHIDEEMGPKTDSTLSFDLTLQQGSHTNIHLLVTTYNLRDAPAESVAYHAQNNPPVPPKPQPKVQEKADIPVKSSPQAAVPYKKDVGKTLCPLCFSILKGPISDALAHHLRERHQVIQTVHPVEKKLTYKCIHCLGVYTSNMTASTITLHLVHCRGVGKTQNGQDKTNAPSRLNQSPSLAPVKRTYEQMEFPLLKKRKLDDDSDSPSFFEEKPEEPVVLALDPKGHEDDSYEARKSFLTKYFNKQPYPTRREIEKLAASLWLWKSDIASHFSNKRKKCVRDCEKYKPGVLLGFNMKELNKVKHEMDFDAEWLFENHDEKDSRVNASKTADKKLNLGKEDDSSSDSFENLEEESNESGSPFDPVFEVEPKISNDNPEEHVLKVIPEDASESEEKLDQKEDGSKYETIHLTEEPTKLMHNASDSEVDQDDVVEWKDGASPSESGPGSQQVSDFEDNTCEMKPGTWSDESSQSEDARSSKPAAKKKATMQGDREQLKWKNSSYGKVEGFWSKDQSQWKNASENDERLSNPQIEWQNSTIDSEDGEQFDNMTDGVAEPMHGSLAGVKLSSQQA", "modifications": "full-length"}}, "key": {"[1]": {"test_system": "peripheral neurotoxicity under chemotherapy including L-OHP, FA/5-FU", "experiment": "Randomized trial with or without NAP under chemotherapy with oxaliplatin (L-OHP), FA/5-FU", "type": "in vivo", "settings": "patients with ACRC, NAP 15 mg/45-70 kg i.v. before L-OHP, vs control group", "procedure": "Aim of the study: Chemotherapy with L-OHP, FA, 5-FU has a high activity in advanced colorectal cancer (ACRC). The main dose-limiting toxicity of chemotherapy with L-OHP is a peripheral sensory neuropathy. In this study the patients (pts) will receive a chemotherapy with L-OHP, FA and 5-FU with or without NAP. The question is whether a reduction of side effects of neurotoxicity is seen after application of NAP.\nWe include 27 patients with ACRC. In arm A chemotherapy is applied with L-OHP 85 mg/m2 d1, FA 500 mg/m2 d1+d2 and 5-FU 4000 mg/m2 over 48 h continuous infusion as biweekly schedule. In arm B, 15 mg/45-70 kg NAP is given over 10 min i.v. before application of the same schedule of chemotherapy. Investigation of toxicity, neurological examination and a blood count is performed before every cycle. For a daily documentation of the side effects every patient receives a questionnaire."}, "[2]": {"test_system": "peripheral neurotoxicity induced by the taxane taxol", "experiment": "Rota-rod test in taxol-treated rats", "settings": "Experiment 2: rats, taxol cumulative 9 mg/kg i.p.; five days after the first taxol injection", "method": "In the Rota-rod test a rodent is placed on a rotating rod. […] The time spent on the rota-rod without falling was recorded. Impaired animals fall earlier from the rota-rod.\n(§3) Forty Sprague-Dawley rats (eight weeks old) were divided into four groups that received the following treatments: a) 10% Cremophor EL in Saline; b) taxol for a cumulative dose of 5.6 mg/kg; c) taxol for a cumulative dose of 5.6 mg/kg+NAP 2.5 μg/kg/Day; or d) taxol for a cumulative dose of 5.6 mg/kg+NAP 25 μg/kg/Day. The taxol was reconstituted in a vehicle of 10% Cremophor EL in Saline.\n(§4) Taxol treatments were administered four times intraperitoneally (i.p.) on nonconsecutive days in a volume of 250 μl each time. NAP was administered daily on 8 consecutive days from the first day of taxol injection (with a 2 day brake on the weekend).\nRats were tested in the rota-rod and plantar test. The rota-rod test is described above and assesses muscle strength. […] Statistical differences were tested by ANOVA and by t-test.\nFifteen Sprague-Dawley Rats (seven weeks old) were randomly divided into three groups that received the following treatments: a) 10% Cremophor EL in Saline; b) taxol for a cumulative dose of 9 mg/kg; or c) taxol for a cumulative dose of 9 mg/kg+2.5 μg/kg/Day NAP. The taxol was reconstituted in a vehicle of 10% Cremophor EL in Saline. […]"}, "[3]": {"test_system": "peripheral neurotoxicity induced by the taxane taxol", "experiment": "Plantar test (thermal hyperalgesia) in taxol-treated rats", "method": "as §3, §4\nRats were tested in the rota-rod and plantar test. […] The plantar test evaluates thermal hyperalgesia. For the plantar test, each rat was placed in a clear plastic chamber with a plastic floor and allowed a short period to acclimatize to the new environment (approximately 2-5 min). The animals were then challenged with a radiant Infrared (IR) heat source directed at the plantar surface of the hind paw from below (7371 Plantar Test, Ugo Basile). The withdrawal latency of both the ipsilateral and contralateral hind paw was evaluated. The infrared intensity was set at IR55 and the maximum length of exposure to the IR source was eighteen seconds. Statistical differences were tested by ANOVA and by t-test. […]"}, "[4]": {"test_system": "peripheral neurotoxicity induced by the vinca alkaloid vincristine", "experiment": "Rota-rod test in vincristine-treated rats", "type": "in vivo", "settings": "vincristine 0.175 mg/kg i.p. alone vs saline control, P<0.01", "procedure": "(§1) Rats (200-300 g), divided into 4 groups of 10, were injected with vincristine sulfate dissolved in saline. Stock concentration was 2 mg/ml, pH 4.5-5.2. Aliquots of the drug were diluted daily in saline to concentrations of 0.175 mg/ml and were administered i.p. at a dose of 0.175 mg/kg. NAP was prepared at 0.1 mg/1.3 ml in saline (0.9% NaCl) and about 0.1 ml was injected subcutaneously to a ˜300 g rat to achieve a dose of 25 microgram/kg (exact calculations were made based on the daily body weights). For 2.5 microgram/kg, the injection solution was diluted by 10 and again 0.1 ml was injected per rat. Treatments took place daily (5 days a week) for ˜3 weeks (20 days) with the dosage calculated on daily body weight. NAP was administered at the same time as the vincristine, in the dosage and the amount where indicated the following schedule.\n(§2) Four groups were evaluated: 1) Control, saline (n=10), 2) Vincristine (i.p.) 0.175 mg/kg (n=10), 3) Vincristine (i.p.) 0.175 mg/kg+NAP (s.c.) 2.5 microgram/kg (n=10), and 4) Vincristine (i.p.) 0.175 mg/kg+NAP (s.c.) 25 microgram/kg (n=10).\nAfter a week cessation of treatment, a final boost of vincristine was given i.p. daily for three days and NAP at 25 microgram/kg was given intranasally to group number 4 only. […] For behavioral testing baseline toxin effects were evaluated 2-23 days following the first injection, using the testing procedures below: […]"}, "[5]": {"test_system": "peripheral neurotoxicity induced by the vinca alkaloid vincristine", "experiment": "Motor evaluation: ability to exit a circle 30 cm in diameter within 20 seconds, vincristine-treated rats", "type": "in vivo", "settings": "vincristine 0.175 mg/kg i.p. alone vs control", "procedure": "as §1, §2\nMotor examination was performed on days 6, 9, 13 and 24 after the initiation of the vincristine injections. Rats were examined after vincristine injection, with the use of a motor disability scale. […]\nAnimals were assessed based on their failure to walk out of a circle 30 cm in diameter within 20 seconds."}, "[6]": {"test_system": "peripheral neurotoxicity induced by the vinca alkaloid vincristine", "experiment": "Olfactory discrimination test in vincristine-treated rats", "type": "in vivo", "settings": "vincristine alone (group 2)", "procedure": "Treatments took place daily (5 days a week) for ˜3 weeks (20 days) with the dosage calculated on daily body weight. NAP was administered subcutaneously at the same time as the vincristine was administered intraperitoneally, in the dosage and the amount indicated in the schedule above. After a week cessation of treatment a final boost of vincristine was given i.p. daily for three days and NAP at 25 microgram/kg was given intranasally to group number 4 only. The intranasal formulation followed the previous experiment (Alcalay et al., infra). An olfactory discrimination test was performed on each of the three days of NAP treatment during the final boost period. (Macknin et al., Brain Res. 1000, 174-78 (2004)) The odors tested were 1) Deionized water (ddw) and 2) Scented extracts, i.e., vanilla/almond.\nOverall the experiment included 3 odors (water and two scented extracts) each encompassing 3 trials of 2 minutes. New dipped tip was introduced at the beginning of each trial for the different scents.\nThirty minutes before the testing the subjects were housed in separate cages and a cotton tip dipped in water was placed hanging into the cage. During these 30 minutes the animal was acclimatized to the tip and the cage. Thereafter, the cotton tip was dipped in the desired scent and placed hanging from the top of the cage. […]"}, "[7]": {"test_system": "neurons of the central nervous system", "settings": "in-vitro assays and in vivo disease models; cited from earlier work"}, "tubulin": {"test_system": "tubulin", "settings": "cited from earlier work"}}, "note": "Ends that are not written are not given here."}
{"molecule": "CC[C@H](C)[C@H](NC(=O)[C@H](CO)NC(=O)[C@@H](NC(=O)[C@@H]1CCCN1C(=O)[C@H](C)NC(=O)[C@@H](N)CC(N)=O)C(C)C)C(=O)N1CCC[C@H]1C(=O)N[C@@H](CCC(N)=O)C(=O)O", "note": "[NAP, Asn-Ala-Pro-Val-Ser-Ile-Pro-Gln]", "values": [{"measurement": "Frequency of grade II/III leucopenia", "setting": "[1]", "value": "occurs at a lower frequency than in the control group"}]}
{"molecule": "CC(=O)O[C@H]1C(=O)[C@@]2(C)[C@H]([C@H](OC(=O)c3ccccc3)[C@]3(O)C[C@H](OC(=O)[C@H](O)[C@@H](NC(=O)c4ccccc4)c4ccccc4)C(C)=C1C3(C)C)[C@]1(OC(C)=O)CO[C@@H]1C[C@@H]2O", "note": "[taxol]", "values": [{"measurement": "Rota-rod test: neuromuscular function, toxin alone", "setting": "[2]", "value": "a significant effect on neuromuscular function"}, {"measurement": "Plantar test: thermal hyperalgesia, toxin alone", "setting": "[3]; Experiment 1: rats, taxol cumulative 5.6 mg/kg i.p., after the last taxol injection on day three", "value": "exhibited thermal hyperalgesia"}, {"measurement": "Plantar test: thermal hyperalgesia, toxin alone", "setting": "[3]; Experiment 2: rats, taxol cumulative 9 mg/kg i.p., eight days after the last Taxol injection", "value": "exhibited a significant thermal hyperalgesia"}]}
{"molecule": "CC[C@]1(O)C[C@H]2CN(CCc3c([nH]c4ccccc34)[C@@](C(=O)OC)(c3cc4c(cc3OC)N(C=O)[C@H]3[C@@](O)(C(=O)OC)[C@H](OC(C)=O)[C@]5(CC)C=CCN6CC[C@]43[C@@H]65)C2)C1", "note": "[vincristine]", "values": [{"measurement": "Rota-rod performance, toxin alone vs control", "setting": "[4]", "value": "significant difference between the vincristine treated animals and the control animals indicating impairment"}, {"measurement": "Ability to exit a circle 30 cm in diameter within 20 seconds, toxin alone vs control", "setting": "[5]; P<0.001", "value": "significantly reduced"}, {"measurement": "Ability to exit a circle 30 cm in diameter within 20 seconds, toxin alone vs control", "setting": "[5]; P<0.001, listed as Vincristine", "value": "significantly worse as compared to control animals"}, {"measurement": "Time spent with new odors: olfaction capacity, toxin alone", "setting": "[6]", "value": "did not show any initial interest in the new smell"}]}
{"molecule": "SALLRSIPA", "values": [{"measurement": "Neuron survival in response to various insults", "setting": "[7]", "value": "keep neurons of the central nervous system alive"}, {"measurement": "Interaction with tubulin", "setting": "tubulin", "value": "interact with tubulin"}]}
{"molecule": "B1", "values": [{"measurement": "Interaction with tubulin", "setting": "tubulin", "value": "interact with tubulin"}]}
